The record followed here is patent US10233186B2, “Inhibitors of activin receptor-like kinase” (BLUEPRINT MEDICINES CORPORATION, priority 2016, dated 2019).

Test [1] deals with T1, ALK2 R206H (GST-tagged mutant ALK2) (Homo sapiens, UniProt Q04771, R206H).
T1 construct: purchased Carna Bioscience or ThermoFisher 09-148 or PV6232
T1 sequence (Q04771 21-509 R206H): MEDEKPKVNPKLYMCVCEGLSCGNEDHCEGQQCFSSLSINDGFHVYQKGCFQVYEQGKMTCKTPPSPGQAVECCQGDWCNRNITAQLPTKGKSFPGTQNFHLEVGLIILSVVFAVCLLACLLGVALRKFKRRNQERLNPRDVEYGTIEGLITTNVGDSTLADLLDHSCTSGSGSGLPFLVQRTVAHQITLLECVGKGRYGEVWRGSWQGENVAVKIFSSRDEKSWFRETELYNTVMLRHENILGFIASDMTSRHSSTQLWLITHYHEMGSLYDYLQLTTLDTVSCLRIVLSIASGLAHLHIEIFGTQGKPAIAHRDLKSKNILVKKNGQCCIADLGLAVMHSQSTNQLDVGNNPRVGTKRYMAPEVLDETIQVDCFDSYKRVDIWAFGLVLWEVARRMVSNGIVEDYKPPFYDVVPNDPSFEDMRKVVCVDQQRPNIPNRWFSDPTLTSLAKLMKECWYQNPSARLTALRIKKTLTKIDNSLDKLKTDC
Put plainly: ALK binding assay (LANTHASCREEN TR-FRET competitive binding, displacement of Kinase Tracer 178). As to conditions: ALK2 R206H, LANTHASCREEN TR-FRET competitive binding; read-out: Binding Assay (IC50).

The target in a further test is T2, human ALK2 R206H (Homo sapiens, UniProt Q04771, R206H).
T2 construct: expressed in transfected cells; host or cells: HEK293 (ATCC CRL1573), lentivirus transduction, blasticidin selection
T2 sequence (Q04771 21-509 R206H): T1 sequence (Q04771 21-509 R206H)
Nature of the test: Cell-based ALK2-R206H cell activity assay (Smad1-Ser463/Ser465 phosphorylation by AlphaLISA in HEK293-ALK2-R206H cells). As to conditions: read-out: Cell Line (Cell Assay IC50). In short, it runs like this:
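Stable HEK293 cells expressing C-terminally FLAG-tagged human ALK2 R206H (lentiviral, blasticidin-selected) were treated with compounds in 10-point, 3-fold dilutions from 10 μM or 1 μM top, in duplicate. Smad1 Ser463/Ser465 phosphorylation was read by AlphaLISA.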

Where only a bound is given, the exact number is not on record here.

Consider `CCN1CC[C@H](c2ccc(-c3cc4c(N5CCN(C(=O)C6CC6)CC5)ccnn4c3)cc2)C1` [Compound 149], for which the IC50 in test [1] is < 10 nM; on human ALK2 R206H it was < 100 nM.

In the case of `CC(C)N1CC[C@@](O)(c2ccc(-c3cc4c(N5CCN(C(=O)C6CC6)CC5)ccnn4c3)cc2)C1` [Compound 523], the results for the IC50 (in test [1]; at human ALK2 R206H) were < 10 nM and < 100 nM, respectively.

As for `CCN1CCN(c2ccc(-c3cc4c(N5CCN(C(=O)C6CCC6)CC5)ccnn4c3)cc2)CC1` [Compound 262], the IC50 in test [1] is < 10 nM; on human ALK2 R206H, 100 to 500 nM.

`O=C(C1CC(F)C1)N1CCN(c2ccnn3cc(-c4ccc(N5CCNCC5)cc4)cc23)CC1` (stereo not drawn) [Compound 234]: the IC50 was < 10 nM in test [1] and < 100 nM on human ALK2 R206H.

With `CCOC(=O)N1CCN(c2ccnn3cc(-c4ccc(C(N)C(C)(C)O)cc4)cc23)CC1` (stereo not drawn) [Compound 764], the results for the IC50 (in test [1]; on human ALK2 R206H) were < 10 nM and < 100 nM, respectively.

Consider `CC(C)N1CCN(c2ccc(-c3cc4c(N5CCN(C(=O)[C@H]6C[C@H](C#N)C6)CC5)ccnn4c3)cc2)CC1` [Compound 413], for which the values for the IC50 (in test [1]; on human ALK2 R206H) were < 10 nM and < 100 nM, respectively.

`CC(C)N1CCC(c2ccc(-c3cc4c(N5CCN(C(=O)OCC6CC6)CC5)ccnn4c3)cc2)CC1` [Compound 386]: the IC50 in test [1] was < 10 nM; on human ALK2 R206H, 100 to 500 nM.

Take `CCOC(=O)N1CCN(c2ccnn3cc(-c4ccc(C5(C#N)CCNCC5)cc4)cc23)CC1` [Compound 483]: the IC50 was < 10 nM in test [1] and < 100 nM on human ALK2 R206H.

Regarding `CC(C)NC(=O)N1CCN(c2ccnn3cc(-c4ccc(C5(F)CCNCC5)cc4)cc23)CC1` [Compound 499], the IC50 in test [1] was < 10 nM; at human ALK2 R206H it was 100 to 500 nM.

Consider `CCOC(=O)N1CCN(c2ccnn3cc(-c4ccc([C@@]5(C)CN(C(C)C)CCN5C)cc4)cc23)CC1` [Compound 642], for which the IC50 is < 10 nM in test [1] and < 100 nM on human ALK2 R206H.

With `CC(C)NC(C)(CO)c1ccc(-c2cc3c(N4CCN(C(=O)OC5COC5)CC4)ccnn3c2)cc1` (stereo not drawn) [Compound 804], the figures for the IC50 (in test [1]; at human ALK2 R206H) were < 10 nM and < 100 nM, respectively.

Take `CCOC(=O)N1CCN(c2ccnn3cc(-c4ccc([C@]5(C)CN(C(C)C)CCN5C)cc4)cc23)CC1` [Compound 641]: the IC50 in test [1] was < 10 nM; on human ALK2 R206H, < 100 nM.

With `COCCN1CCN(c2ccc(-c3cc4c(N5CCN(C(=O)C6CC6)CC5)ccnn4c3)cc2)CC1` [Compound 334], the IC50 in test [1] was 10 to 50 nM; at human ALK2 R206H, 100 to 500 nM.

As to `CC1(c2ccc(-c3cc4c(N5CCN(C(=O)C6CC6)CC5)ccnn4c3)nc2)CCCN1` (stereo not drawn) [Compound 463], the IC50 in test [1] is < 10 nM; at human ALK2 R206H, < 100 nM.

Take `CCOC(=O)N1CCN(c2ccnn3cc(-c4ccc(C5CCN(CC)CC5)cc4)cc23)CC1` [Compound 230, ethyl 4-(6-(4-(1-ethylpiperidin-4-yl)phenyl)pyrrolo[1,2-b]pyridazin-4-yl)piperazine-1-carboxylate]: the values for the IC50 (in test [1]; on human ALK2 R206H) were < 10 nM and < 100 nM, respectively.

In the case of `COC1(c2ccc(-c3cc4c(N5CCN(C(=O)NC(C)C)CC5)ccnn4c3)c(F)c2)CCN(C(C)C)CC1` [Compound 721], the IC50 in test [1] was < 10 nM; on human ALK2 R206H, < 100 nM.

Take `CCN1CCN(c2ccc(-c3cc4c(N5CCN(C(=O)[C@H]6C[C@H]6F)CC5)ccnn4c3)cc2)CC1` [Compound 293]: the IC50 in test [1] was < 10 nM; at human ALK2 R206H it was < 100 nM.

For the compound `CCOC(=O)N1CCN(c2ccnn3cc(-c4ccc([C@]5(OCC)CCCNC5)cn4)cc23)CC1` [Compound 787], the results for the half-maximal inhibitory concentration (IC50) (in test [1]; at human ALK2 R206H) were < 10 nM and < 100 nM, respectively.

Consider `CCN1CC2CN(c3ccnn4cc(-c5ccc(N6CCN(C(C)C)CC6)cc5)cc34)CCN2C1=O` (stereo not drawn) [Compound 329], for which the 50% inhibitory concentration (IC50) in test [1] was < 10 nM; at human ALK2 R206H, 100 to 500 nM.

In the case of `CC(C)N1CCC[C@](O)(c2ccc(-c3cc4c(N5CCN(C(=O)C6CC6)CC5)ccnn4c3)cc2)C1` [Compound 326], the figures for the IC50 (in test [1]; at human ALK2 R206H) were < 10 nM and < 100 nM, respectively.

`CC(C)N1CCC(c2ccc(-c3cc4c(N5CCN(C(=O)OC6COC6)[C@H](C)C5)ccnn4c3)cc2)CC1` [Compound 669]: the IC50 was < 10 nM in test [1] and < 100 nM at human ALK2 R206H.

For `CCC(C)N1CCC(c2ccc(-c3cc4c(N5CCN(C(=O)C6CC6)CC5)ccnn4c3)cc2)CC1` (stereo not drawn) [Compound 313], the IC50 in test [1] is < 10 nM; at human ALK2 R206H it was < 100 nM.

`COC1(c2ccc(-c3cc4c(N5CCN(C(=O)OC6COC6)CC5)ccnn4c3)nc2)CCN(C(C)C)CC1` [Compound 846]: the IC50 in test [1] is < 10 nM; on human ALK2 R206H, < 100 nM.

On to `CC(C)N1CCC(C)(c2ccc(-c3cc4c(N5CCN(C(=O)C6CC6)CC5)ccnn4c3)cc2)CC1` [Compound 565], for which the IC50 was < 10 nM in test [1] and < 100 nM at human ALK2 R206H.

In the case of `COC1(c2ccc(-c3cc4c(N5CCN(C(=O)OC6COC6)CC5)ccnn4c3)c(F)c2)CCN(C(C)C)CC1` [Compound 737], the IC50 in test [1] was < 10 nM; at human ALK2 R206H, < 100 nM.

In the case of `CCN1CC[C@H](c2ccc(-c3cc4c(N5CCN(C(=O)N6CC(C#N)C6)CC5)ccnn4c3)cc2)C1` [Compound 304], the IC50 in test [1] was < 10 nM; on human ALK2 R206H, < 100 nM.

As for `CCOC1(c2ccc(-c3cc4c(N5CCN(C(=O)[C@H]6C[C@H](C#N)C6)CC5)ccnn4c3)nc2)CCN(C(C)C)CC1` [Compound 871], the figures for the IC50 (in test [1]; on human ALK2 R206H) were < 10 nM and < 100 nM, respectively.

Consider `CCN1CCN(c2ccc(-c3cc4c(N5CCN(C(=O)C6CC6)CC5)ccnn4c3)cc2)C[C@@H]1C` [Compound 265], for which the IC50 in test [1] is < 10 nM; on human ALK2 R206H it was < 100 nM.

As to `CCN1CCC(c2ccc(-c3cc4c(N5CCN(C(=O)N6CCCCC6)CC5)ccnn4c3)cc2)CC1` [Compound 379], the IC50 in test [1] was < 10 nM; on human ALK2 R206H, 100 to 500 nM.

As for `CC(C)N1CC[C@H](c2ccc(-c3cc4c(N5CCN(C(=O)[C@H]6CC[C@H](C#N)CC6)CC5)ccnn4c3)nc2)C1` [Compound 703], the IC50 in test [1] was < 10 nM; on human ALK2 R206H, < 100 nM.

On to `CCN1CCC(c2ccc(-c3cc4c(N5CCN(C(=O)N6CCC(C#N)CC6)CC5)ccnn4c3)cc2)CC1` [Compound 428], for which the IC50 in test [1] is < 10 nM; at human ALK2 R206H, 100 to 500 nM.

As for `O=C([C@H]1C[C@H]1F)N1CCN(c2ccnn3cc(-c4ccc(N5CCNCC5)cc4)cc23)CC1` [Compound 185], the IC50 in test [1] was < 10 nM; on human ALK2 R206H it was < 100 nM.

In the case of `CC(C)N1CCC[C@@H](c2ccc(-c3cc4c(N5CCN(C(=O)OCCC#N)CC5)ccnn4c3)cc2)C1` [Compound 810], the IC50 was < 10 nM in test [1] and < 100 nM on human ALK2 R206H.

For the compound `CC(C)N1CCC[C@@H](c2ccc(-c3cc4c(N5CCN(C(=O)OC6COC6)CC5)ccnn4c3)cc2F)C1` [Compound 692], the figures for the IC50 (in test [1]; on human ALK2 R206H) were < 10 nM and < 100 nM, respectively.

Regarding `COCC1(c2ccc(-c3cc4c(N5CCN(C(=O)C6CC6)CC5)ccnn4c3)cc2)CCN(C(C)C)CC1` [Compound 824], the IC50 in test [1] is < 10 nM; on human ALK2 R206H, < 100 nM.

Consider `CC(C)NC(=O)N1CCN(c2ccnn3cc(-c4ccc([C@H]5CN(C(C)C)CC[C@@H]5OC(F)F)cc4)cc23)CC1` [Compound 868], for which the results for the IC50 (in test [1]; on human ALK2 R206H) were < 10 nM and < 100 nM, respectively.

`CC(C)NC(=O)N1CCN(c2ccnn3cc(-c4cnn([C@H]5CCCNC5)c4)cc23)CC1` [Compound 470]: the IC50 in test [1] is < 10 nM; at human ALK2 R206H, < 100 nM.

`CCOC1(c2ccc(-c3cc4c(N5CCN(C(=O)OC6COC6)CC5)ccnn4c3)nc2)CCN(CC(C)F)CC1` (stereo not drawn) [Compound 880]: the IC50 in test [1] is < 10 nM; at human ALK2 R206H, < 100 nM.

For `CCOC(=O)N1CCN(c2ccnn3cc(-c4ccc([C@@H]5CCCN(C(C)C)C5)cc4)cc23)C[C@H]1C` [Compound 586], the IC50 is < 10 nM in test [1] and 100 to 500 nM at human ALK2 R206H.

Regarding `CC(C)N1CCC(c2ccc(-c3cc4c(N5CCN(C(=O)NCCC#N)CC5)ccnn4c3)cc2)CC1` [Compound 377], the IC50 in test [1] is < 10 nM; at human ALK2 R206H it was 100 to 500 nM.

Regarding `CC(C)N1CCC(c2ccc(-c3cc4c(N5CCN(C(=O)NCC(F)(F)F)CC5)ccnn4c3)cc2)CC1` [Compound 708], the IC50 in test [1] was < 10 nM; on human ALK2 R206H, < 100 nM.

`COC1(c2ccc(-c3cc4c(N5CCN(C(=O)C6CC6)CC5)ccnn4c3)cc2F)CCN(C(C)C)CC1` [Compound 680]: the IC50 in test [1] is < 10 nM; at human ALK2 R206H, < 100 nM.

`C[C@H]1CN(c2ccc(-c3cc4c(N5CCN(C(=O)C6CC6)CC5)ccnn4c3)cc2)CCN1` [Compound 156]: the IC50 is < 10 nM in test [1] and < 100 nM at human ALK2 R206H.

Turning to `O=C(C1CC1)N1CCN(c2ccnn3cc(-c4ccc(N5CCNCC5)cc4OC(F)F)cc23)CC1` [Compound 363], the IC50 in test [1] was < 10 nM; at human ALK2 R206H, 100 to 500 nM.

Consider `CC(C)N1CCC[C@@](F)(c2ccc(-c3cc4c(N5CCN(C(=O)OC6COC6)CC5)ccnn4c3)cc2)C1` [Compound 690], for which the IC50 was < 10 nM in test [1] and < 100 nM at human ALK2 R206H.
